Entries after “also recorded” stand apart in the source; their conditions may differ. Marks after values point to notes of the source that are not given here.
Experiments:
Ube1 = biological target: T1, Ube1 (Homo sapiens, UniProt P22314); experiment: ATP-PPi exchange assay of Ube1 activation; format: biochemical; conditions: for reactivity of free 7mer peptides with Ube1 (ATP-PPi exchange rate): free short peptides, Figure 1, n=3; for kcat/Km / Km / kcat: ATP-PPi exchange catalyzed by Ube1, 0.05 uM Ube1, peptides 10-1000 uM, n=3; for kcat/Km / kcat: pH7.5, room temperature; for Km: 50 mM Tris-Cl pH7.5, 10 mM MgCl2, 1 mM ATP, 1 mM [32P]pyrophosphate, room temperature; for Km / kcat: Michaelis-Menten fit
T1 sequence (P22314 1-1058): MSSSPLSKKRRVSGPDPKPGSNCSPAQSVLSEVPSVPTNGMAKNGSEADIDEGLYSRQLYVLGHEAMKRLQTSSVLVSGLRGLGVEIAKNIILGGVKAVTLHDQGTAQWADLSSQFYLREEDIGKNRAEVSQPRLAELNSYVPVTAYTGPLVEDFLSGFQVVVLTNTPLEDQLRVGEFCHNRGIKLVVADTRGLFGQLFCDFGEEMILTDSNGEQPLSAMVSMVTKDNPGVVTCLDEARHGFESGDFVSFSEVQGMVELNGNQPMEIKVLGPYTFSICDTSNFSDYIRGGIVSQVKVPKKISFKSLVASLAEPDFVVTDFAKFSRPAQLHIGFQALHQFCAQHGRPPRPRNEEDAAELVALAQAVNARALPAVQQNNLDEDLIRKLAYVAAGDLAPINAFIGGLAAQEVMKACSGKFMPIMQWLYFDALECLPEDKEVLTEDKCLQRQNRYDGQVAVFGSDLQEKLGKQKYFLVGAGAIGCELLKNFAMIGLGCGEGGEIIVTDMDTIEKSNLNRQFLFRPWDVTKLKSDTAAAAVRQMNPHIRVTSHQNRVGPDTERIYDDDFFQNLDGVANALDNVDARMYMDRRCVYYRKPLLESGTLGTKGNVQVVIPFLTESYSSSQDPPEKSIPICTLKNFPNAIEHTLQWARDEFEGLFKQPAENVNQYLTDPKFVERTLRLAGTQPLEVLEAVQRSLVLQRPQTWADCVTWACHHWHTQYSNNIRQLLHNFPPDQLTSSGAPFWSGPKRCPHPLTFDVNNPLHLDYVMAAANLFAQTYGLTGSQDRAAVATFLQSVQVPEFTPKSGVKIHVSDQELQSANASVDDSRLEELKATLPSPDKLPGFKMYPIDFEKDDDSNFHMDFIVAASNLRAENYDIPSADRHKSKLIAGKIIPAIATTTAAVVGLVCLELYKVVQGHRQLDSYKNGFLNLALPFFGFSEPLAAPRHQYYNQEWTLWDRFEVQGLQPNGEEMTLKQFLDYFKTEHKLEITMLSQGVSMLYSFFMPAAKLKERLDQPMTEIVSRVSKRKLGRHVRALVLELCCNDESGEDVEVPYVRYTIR
Protocol: Initial velocity of Ube1-activated peptides either in the free state or on different frames was followed by the ATP-PPi exchange assay. 50 uL reactions were set up containing varying concentrations of peptides, 0.05 uM Ube1, 50 mM Tris-Cl, pH7.5, 10 mM MgCl2, and 1 mM ATP. The reactions were initiated by adding of 1 mM [^32P]pyrophosphate (4.6 Ci/mol). The reactions were incubated at room temperature and quenched at various time points by adding of 0.5 mL of a suspension of activated charcoal (1.6 % (w/v) charcoal, 0.1 M tetrasodium pyrophosphate, and 0.35 M perchloric acid) to each of the reactions. The charcoal was pelleted by centrifugation and each charcoal pellet was washed three times with 1 ml 2 % trichloroacetic acid. Finally the charcoal pellet was resuspended in 0.5 ml water and the suspension was added to 3.5 mL Ultima Gold LSC-cocktail (PerkinElmer). The radioactivity bound to charcoal was determined by liquid scintillation counting. To measure the kinetics of the peptides activation by Ube1, initial velocities of ATP-PPi exchange were determined with concentrations of peptides varying from 10 uM to 1000 uM. The kinetic data were fitted to the Michaelis-Menten equation with the data analysis software Origin.

E2 and E3 = conditions: cited from earlier work

Row | Substance | reactivity of free 7mer peptides with Ube1 (ATP-PPi exchange rate) (Ube1) | kcat/Km (Ube1) | Km (Ube1) [µM] | kcat (Ube1) | transfer of free peptides to E2 and E3 (E2 and E3)
1 | IPRDRVG [C8, heptamer peptide IPRDRVG from Ubiquitin-fold modifier 1 (Homo sapiens)] | neither C8, containing Arg but only one Gly, nor C3, which possesses the C-terminal Gly-Gly but with a homologous replacement of Arg to Lys, showed any reactivity toward Ube1 | – | – | – | –
2 | VLRLRGG [P1, reference compound] | could not be conjugated to Ube1 | 5.24e-05 µM/min | – | – | –
3 | VLRQLGG [C2, heptamer peptide VLRQLGG from Drosophila homologue of C1orf55] | displayed affinity with Ube1 with a similar level of efficiency as P3 and P4 | 6.10 x10^−3^b μM min^−1 | 611 ± 23.1 | 3.73±0.87^b min^−1 | –
4 | VQRYWGG [P3, previously reported short peptide VQRYWGG, positive control, reference compound] | showed significant activity with Ube1 | 0.014 µM/min | 476 ± 163 | 6.68 ± 0.77 min⁻¹ | could be transferred to E2 and E3
5 | ALKERGG [C3, heptamer peptide ALKERGG from Human splicing factor 3A subunit 1 isoform 1] | neither C8, containing Arg but only one Gly, nor C3, which possesses the C-terminal Gly-Gly but with a homologous replacement of Arg to Lys, showed any reactivity toward Ube1 | – | – | – | –
6 | EPRLCGG [C1, heptamer peptide EPRLCGG from the motif of Human C1orf55] | displayed affinity with Ube1 with a similar level of efficiency as P3 and P4 | 3.52 x10^−3^a μM min^−1 | 651 ± 49.3 | 2.29±0.59^a min^−1 | –
7 | VYRFYGG [P4, previously reported short peptide VYRFYGG, positive control, reference compound] | showed significant activity with Ube1 | 0.0557 µM/min | 251 ± 55.6 | 13.98 ± 2.08 min⁻¹ | could be transferred to E2 and E3
8 | AGRMLGG [C7, heptamer peptide AGRMLGG from Ubiquitin-like protein fubi and ribosomal protein S30 precursor] | displayed affinity with Ube1 with a similar level of efficiency as P3 and P4; also recorded: highest activity of the three peptides identified in this study | 1.01 x10^−2^c μM min^−1 | 543 ± 122 | 5.54±1.37^c min^−1 | –
